From patent publication US6916843B1, “Anti-inflammatory actions of cytochrome P450 expoxygenase-derived eicosanoids” (The United States of America as represented by the …, priority 1999, dated 2005)

Columns and labels:
superoxide anion = assay: Superoxide anion formation by BAECs (lucigenin chemiluminescence); format: cell-based, bovine; settings: CYP2J2-transfected vs GFP-transfected cells
Method: The rate of superoxide anion generation by BAECs was determined as follows: Forty-eight hours after transfection with either pcDNA3.1/GFP or pcDNA3.1/CYP2J2, BAECs were detached by treatment with trypsin and resuspended in culture medium containing 10% FBS. Special care was taken to avoid unnecessary manipulation of the BAECs. The rate of superoxide anion formation in vitro was determined by chemiluminescence of lucigenin (bis-N-methylacridinium nitrate) as described by Yang et al., 274 Am. J. Physiol. H1955-H1961 (1998)). Briefly, culture medium (10% of FBS added) containing 0.25 mmol/L lucigenin (pH 7.4) was prepared as an assay solution. One milliliter of this assay solution was placed in a plastic scintillation vial., and then 2×10^6 BAECs were gently placed in the assay solution. The chemiluminescence of lucigenin was then detected with the use of a scintillation counter (LS 6500, Beckman Instruments, Fullerton, Calif.) in out-of-coincidence mode with a single active photomultiplier tube every 5 min. The chemical specificity of this light-yielding reaction for superoxide anion has been reported previously (Yang et al., 274 Am. J. Physiol. H1955-H1961 (1998)).

endogenous EET levels = assay: Endogenous EET levels in BAECs (gas chromatography/mass spectrometry); format: cell-based, bovine; settings: CYP2J2 transfection vs control BAECs
From the text: In addition to the cyclooxygenase and lipoxygenase pathways, the P450 monooxygenase pathway is an important member of the cardiac arachidonic acid metabolic cascade (Wu et al., 272 J. Biol. Chem 12551 (1997)).

[1] = system: mononuclear cell adhesion to carotid artery; assay: TNF-α-induced mononuclear cell (U937) adhesion in the murine carotid artery; format: in vivo; settings: mouse, intra-arterial infusion 100 ng/kg/min, TNF-α 10 μg/kg i.p., 5 hours
Method: FIG. 3A is a graph showing the expression of VCAM-1 in the murine carotid artery at 5 hours after treatment with intraperitaneal injection of TNF-α (10 μg/kg) alone or in combination with continuous intra-arterial infusion of [11,12]-EET (100 ng/kg/min). FIG. 3B is a bar graph showing the effect of [11,12]-EET on TNF-α induced mononuclear cell adhesion in the murine carotid artery. The mononuclear cells (U937) were perfused through the carotid artery at a wall shear stress of 3 dyn/cm^2. Intra-arterial infusion of vehicle (saline) or [14,15]-EET (100 ng/kg/min) had no effect. […] All experiments except the [14,15]-EET infusion were performed in duplicate.
To determine the functional relevance of EETs in vascular inflammation, we tested [11,12]-EET and its regioisomer [14,15]-EET in a recently developed in vivo model of TNF-α-induced VCAM-1 -mediated mononuclear cell adhesion in the murine carotid artery. […]
Cell rolling and adhesion were recorded on videotape using stroboscopic epifluoresence illumination with an introvital microscope (objective Zeiss 20×, 0.5 numerical aperture). […] In separate experiments, VCAM-1 expression was measured in paraffin-sections (5 μm thick) of carotid arteries harvested from mice treated in the same way. […]

VCAM-1 expression = assay: Cell-surface enzyme immunoassay of cytokine-induced VCAM-1 expression in endothelial cells; format: cell-based, human; settings: 100 nM, 24 hours

Compound | rate of superoxide anion formation (superoxide anion) | increase of endogenous EET levels (endogenous EET levels) | mononuclear cell adhesion to the vessel wall [1] | inhibition of IL-1α-induced VCAM-1 expression (VCAM-1 expression; IL-1α) | inhibition of LPS-induced VCAM-1 expression (VCAM-1 expression; LPS 10 ng/ml)
CYP2J2: CYP2J2 cDNA (1.9 kb) subcloned into plasmid pcDNA3.1, transfected into endothelial cells | significantly lower | approximately 30% | – | – | –
CCCCC/C=C\C[C@H]1O[C@H]1C/C=C\C/C=C\CCCC(=O)O [[11,12]-EET] | – | – | inhibited | inhibited | inhibited
